Assay results published in patent publication US10765114B2, “4-amino-6-(pyridyl and 2-substitutedphenyl)-picolinates and 6-amino-2-(pyridyl and 2-substitutedphenyl)-pyrimidine-4-carboxylates and their use as herbicides” (Dow AgroSciences LLC, priority 2013, dated 2020).

Key:
Assay in all cases: Postemergence Herbicidal Activity in Direct Seeded Rice
Type in all cases: in vivo
[1] = test system: CYPSS: sedge including small-flower flatsedge (Cyperus difformis), yellow nutsedge (Cyperus esculentus), rice flatsedge (Cyperus iria); conditions: for Visual Growth Reduction (%) 21 Days After Application, CYPSS: postemergence, direct seeded rice
From the text: (§1) Seeds or nutlets of the desired test plant species were planted in a soil matrix prepared by mixing a loam soil (43 percent silt, 19 percent clay, and 38 percent sand, with a pH of about 8.1 and an organic matter content of about 1.5 percent) and river sand in an 80 to 20 ratio. The soil matrix was contained in plastic pots with a surface area of 139.7 cm^2. When required to ensure good germination and healthy plants, a fungicide treatment and/or other chemical or physical treatment was applied. The plants were grown for 10-17 days in a greenhouse with an approximate 14-h photoperiod which was maintained at about 29° C. during the day and 26° C. during the night. Nutrients and water were added on a regular basis and supplemental lighting was provided with overhead metal halide 1000-Watt lamps as necessary. The plants were employed for testing when they reached the second or third true leaf stage.
(§2) A weighed amount, determined by the highest rate to be tested, of each test compound was placed in 25 mL glass vials and dissolved in a volume of 97:3 v/v acetone-DMSO to obtain 12× stock solutions. […] The concentrated stock solutions were added to the spray solutions so that the final acetone and DMSO concentrations were 16.2% and 0.5%, respectively. Spray solutions were diluted to the appropriate final concentrations with the addition of 10 mL of an aqueous mixture of 1.5% (v/v) Agri-dex crop oil concentrate. The final spray solutions contained 1.25% (v/v) Agri-dex crop oil concentrate. Compound requirements are based upon a 12 mL application volume at a rate of 187 L/ha. Formulated compounds were applied to the plant material with an overhead Mandel track sprayer equipped with 8002E nozzles calibrated to deliver 187 L/ha over an application area of 0.503 square meters (m^2) at a spray height of 18 inches (43 cm) above average plant canopy height. Control plants were sprayed in the same manner with the solvent blank.
(§3) The treated plants and control plants were placed in a greenhouse as described above and watered by sub-irrigation to prevent wash-off of the test compounds. After 20-22 days, the condition of the test plants, compared with that of the untreated plants, was determined visually and scored on a scale of 0 to 100 percent where 0 corresponds to no injury and 100 corresponds to complete kill and presented as indicated in Table A.
(§4) By applying the well-accepted probit analysis as described by J. Berkson in Journal of the American Statistical Society, 48, 565 (1953) and by D. Finney in “Probit Analysis” Cambridge University Press (1952), herbicidal injury of a specific compound at various rates can be used to calculate GR20, GR50, GR80 and GR90 values, which are defined as growth reduction factors that correspond to the effective dose of herbicide required to provide plant growth reduction (GR) of 20 percent, 50 percent, 80 percent and 90 percent, respectively. Probit analysis was applied to data collected from multiple dose rates of individual compounds utilizing the procedures explained in the following examples. The analysis of those dose rates is captured in the following tables

[2] = test system: BRAPP: broadleaf signalgrass, Brachiaria platyphylla; conditions: for Visual Growth Reduction (%) 21 Days After Application, BRAPP: postemergence, direct seeded rice
From the text: as §1, §2, §3, §4

[3] = test system: LEFSS: sprangletop including Chinese sprangletop (Leptochloa chinensis), green sprangletop (Leptochloa dubia); conditions: for Visual Growth Reduction (%) 21 Days After Application, LEFSS: postemergence, direct seeded rice
From the text: as §1, §2, §3, §4

[4] = test system: SCPJU: Japanese bulrush, Schoenoplectus juncoides; conditions: for Visual Growth Reduction (%) 21 Days After Application, SCPJU: postemergence, direct seeded rice
From the text: as §1, §2, §3, §4

[5] = test system: SEBEX: hemp sesbania, Sesbania exaltata; conditions: for Visual Growth Reduction (%) 21 Days After Application, SEBEX: postemergence, direct seeded rice
From the text: as §1, §2, §3, §4

ORYSS: Oryza sativa = conditions: for Visual Growth Reduction (%) 21 Days After Application, ORYSS: postemergence, direct seeded rice
From the text: as §1, §2, §3, §4

[6] = test system: ECHSS: including barnyardgrass, (Echinochloa crus-galli), junglerice, (Echinochloa colonum); conditions: for Visual Growth Reduction (%) 21 Days After Application, ECHSS: postemergence, direct seeded rice
From the text: as §1, §2, §3, §4

[7] = Growth reduction of 50% of plant growth, probit analysis
[8] = Growth reduction of 80% of plant growth, probit analysis

## COC(=O)c1nc(-c2ccc(C(F)(F)F)nc2)c(Cl)c(N)c1Cl [Compound 83]
[1]; 35 g ai/ha
  Visual Growth Reduction (%) 21 Days After Application, CYPSS: A (95-100)
[1]; 70 g ai/ha
  Visual Growth Reduction (%) 21 Days After Application, CYPSS: A (95-100)
[1]; [7]
  GR50, CYPSS: 2 g ai/ha
[1]; [8]
  GR80, CYPSS: 3 g ai/ha
[2]; 35 g ai/ha
  Visual Growth Reduction (%) 21 Days After Application, BRAPP: A (95-100)
[2]; 70 g ai/ha
  Visual Growth Reduction (%) 21 Days After Application, BRAPP: A (95-100)
[2]; [7]
  GR50, BRAPP: 6 g ai/ha
[2]; [8]
  GR80, BRAPP: 16 g ai/ha
[3]; 35 g ai/ha
  Visual Growth Reduction (%) 21 Days After Application, LEFSS: B (85-94)
[3]; 70 g ai/ha
  Visual Growth Reduction (%) 21 Days After Application, LEFSS: D (60-74)
[3]; [7]
  GR50, LEFSS: 27 g ai/ha
[3]; [8]
  GR80, LEFSS: 53 g ai/ha
[4]; 35 g ai/ha
  Visual Growth Reduction (%) 21 Days After Application, SCPJU: A (95-100)
[4]; 70 g ai/ha
  Visual Growth Reduction (%) 21 Days After Application, SCPJU: A (95-100)
[4]; [7]
  GR50, SCPJU: <17.5 g ai/ha
[4]; [8]
  GR80, SCPJU: <17.5 g ai/ha
[5]; 35 g ai/ha
  Visual Growth Reduction (%) 21 Days After Application, SEBEX: A (95-100)
[5]; 70 g ai/ha
  Visual Growth Reduction (%) 21 Days After Application, SEBEX: A (95-100)
[5]; [7]
  GR50, SEBEX: 2 g ai/ha
[5]; [8]
  GR80, SEBEX: 5 g ai/ha
ORYSS: Oryza sativa; 35 g ai/ha
  Visual Growth Reduction (%) 21 Days After Application, ORYSS: E (45-59)
ORYSS: Oryza sativa; 70 g ai/ha
  Visual Growth Reduction (%) 21 Days After Application, ORYSS: F (30-44)
ORYSS: Oryza sativa; Growth reduction of 20% of plant growth, probit analysis
  GR20, ORYSS: 23 g ai/ha
[6]; 35 g ai/ha
  Visual Growth Reduction (%) 21 Days After Application, ECHSS: A (95-100)
[6]; 70 g ai/ha
  Visual Growth Reduction (%) 21 Days After Application, ECHSS: A (95-100)
[6]; [7]
  GR50, ECHSS: 3 g ai/ha
[6]; [8]
  GR80, ECHSS: 9 g ai/ha
